Laboratory results published in the NIST ThermoML archive (doi:10.1016/j.jct.2016.09.015).
± gives the expanded uncertainty stated by the source.

What was measured:
[1] = Crystal; DTA
[2] = Molar enthalpy of transition or fusion; details: Crystal; DSC

C[C@@H]1O[C@@H](OC[C@H]2O[C@@H](Oc3c(-c4ccc(OCCO)c(OCCO)c4)oc4cc(OCCO)cc(O)c4c3=O)[C@H](O)[C@@H](O)[C@@H]2O)[C@H](O)[C@H](O)[C@H]1O [Troxerutin]
Normal melting temperature [1]: 168.68 ± 0.46 °C
Molar enthalpy of transition or fusion [2]: 31.1 ± 2.2 kJ/mol
